Measured values published in the supplement of paper PMC8837787.

Tested on: Saccharomyces cerevisiae ABC16-Green Monster
Test: growth inhibition at single dose (up to 150 µM), below the 70% cut-off for dose-response; higher = more potent
Settings: 18 h; 30 °C; YPD
Procedure, shortened: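 Drug-sensitive S. cerevisiae ABC16-Green Monster cells were grown overnight in YPD at 30 °C and diluted to log phase (OD600 0.1–0.2). Each library compound was added at one dose of 150 µM to 200 µl culture per well in 96-well plates, in biological duplicates, with untreated cultures alongside. OD600 was read at 0 h and after 18 h at 30 °C. The value is percent growth inhibition; compounds below 70% in both replicates were not taken to dose-response.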

SMILES | growth inhibition at single dose [%]
CCCc1c(C)nc2ccc(Br)cc2c1O | < 70
Cc1ccc(OCCCCCCNCCO)c(C)c1 | < 70
CN(C)c1ccc(CNc2ncnc3ccccc23)cc1 | < 70
CN1CCN(c2c3c(c(C#N)c4nc5ccccc5n24)CCC3)CC1 | < 70
O/N=C1/c2ccccc2-c2nnc(-c3cccc(OC(F)(F)F)c3)cc21 | < 70
O=C1[C@@H](Oc2ccccc2)[C@@H](c2ccc(Cl)cc2)N1CCn1cnc2c(NCc3ccccc3)ncnc21 | < 70
Nc1c2c(nc3sc4c(c13)CCCC4)CCCC2 | < 70
O=C(Nc1ccc(N2CCN(Cc3ccccc3)CC2)cc1)c1cccs1 | < 70
COC(=O)c1ccc(C2C3=C(O)CC(c4ccc(F)cc4)CC3=Nc3ccccc3N2C(=O)c2ccccc2)cc1 (centres undefined) | < 70
O=C(Nc1cccc(Cl)c1)c1cnc(N2CCN(c3ccncc3)CC2)c(Cl)c1 | < 70
Cc1ccnc(NC(=O)C2CC(=O)N(c3ccc(C)c(C)c3)C2)c1 (centres undefined) | < 70
O=c1ccc(-c2nc3c4c5c(sc4ncn3n2)CCCCC5)n[nH]1 | < 70
Cc1cccnc1NC(=O)c1cccc(OCc2c(C)noc2C)c1 | < 70
Cc1cc(C(=O)NCc2nnc3ccccn23)c(C)n1C1CCCCC1 | < 70
CC1=C(CC(=O)c2cccc([N+](=O)[O-])c2)C(=O)c2ccccc2C1=O | < 70
CC(C)Cn1c(N)c(C(=O)CSc2nnc(COc3ccccc3Cl)o2)c(=O)n(C)c1=O | < 70
CC(=O)NCc1ccc(C(=O)Nc2ccccc2O)cc1 | < 70
Nc1ncnc2c1c(Cc1cccc3ccccc13)nn2CC1CCNCC1 | < 70
O=C(Nc1ncccc1O)c1ccc(Cn2cccn2)cc1 | < 70
O=C(Nc1cccc(-c2nc3ccccc3[nH]2)c1)c1cccc(NC(=O)c2ccco2)c1 | < 70
CC(Nc1ccc(Oc2cccc(F)c2)cc1)C(=O)N1CCNC1=O (centres undefined) | < 70

SMILES | growth inhibition at single dose [%]
CNC(=O)C1Cc2c([nH]c3cc(Cl)ccc23)C2(CCN(CCc3ccccc3)CC2)N1 (centres undefined) | < 70
Oc1ccc(C2=CCN(c3ncnc4ccccc34)CC2)cc1 | < 70
O=C(NCc1ccco1)N1CCN(Cc2ccc(Cl)s2)CC1 | < 70
CCOC(=O)c1c(NC(=O)Cn2ncc(Cl)c(Cl)c2=O)sc(C(=O)NC)c1C | < 70
Cn1c(=O)c2c(S(C)(=O)=O)snc2n(C)c1=O | < 70
Cc1ccc(Cl)cc1N1CCN(CCCNC(=O)C2CCN(c3nc4ccccc4[nH]3)CC2)CC1 | < 70
COCCn1c(C)cc(C(=O)CSc2nnc(C)s2)c1C | < 70
Cc1ccc(Sc2nc(-c3cccs3)ns2)cc1 | < 70
CC(C)(C)OC(=O)N1CCN(c2nccc(-c3ccc(-c4ccc(Cl)cc4)s3)n2)CC1 | < 70
CCC(=O)Nc1ccccc1C(=O)Nc1ccccn1 | < 70
Cc1nn2c(O)c3c(nc2c1-c1ccc(F)cc1)CCCC3 | < 70
CCCCc1c(C)nc2c(OC)cccc2c1O | < 70
c1ccc2c(NCCc3c[nH]c4ccccc34)c3ccccc3nc2c1 | < 70
Nc1ncc(-c2cn[nH]c2)cc1-c1nc2cc(Cl)cnc2[nH]1 | < 70
Cc1cc(NC(=O)c2cccc(S(=O)(=O)N3c4ccccc4CC3C)c2)no1 (centres undefined) | < 70
Cc1ccc2[nH]c3c(NCCN(C)C)ncnc3c2c1 | < 70
C[C@]1(O)C[C@@H](c2nc(-c3ccc4ccc(-c5ccccc5)nc4c3)c3c(N)nccn32)C1 | < 70
COc1ccccc1NC(=O)NCc1nc(-c2ccccc2)c[nH]1 | < 70
CCOc1ccc(-c2nonc2NC(=O)c2cccc(C)c2)cc1OCC | < 70
CCCCNc1nc(NC(C)(C)C)nc(NC(C)(C)C)n1 | < 70
COc1cccc(O)c1CN1CCC2(CCCN(Cc3ccc(F)cc3)C2)C1 (centres undefined) | < 70

SMILES | growth inhibition at single dose [%]
Cc1cc(NC(=O)C(C)(C)C)sc1C(=O)Nc1ccccc1O | < 70
Nc1nccc2ccc(Oc3ccncc3)cc12 | < 70
COc1ccc(Br)cc1C1Nc2ccc3ccccc3c2C2=C1C(=O)CC(c1ccccc1)C2 (centres undefined) | < 70
O=c1nc(-c2ccccn2)[nH]c2scc(-c3ccccc3)c12 | < 70
CC(=O)NCC1CN(c2ccc(-c3ccc(CNCc4cn[nH]n4)cc3)c(F)c2)C(=O)O1 (centres undefined) | < 70
COc1ccc(O)c(C(=O)c2cnc3cc4c(cc3c2)OCCO4)c1 | < 70
Nc1nccc2ccc(-c3ccc4nccn4c3)cc12 | < 70
CC(NCc1ccccc1)c1cc(Cl)ccc1O (centres undefined) | < 70
O=C(CSc1ccc2nnc(-c3cccc(F)c3)n2n1)Nc1ccc2c(c1)OCO2 | < 70
CCC(C)NC(=O)c1ccc(NC(=O)C2(c3ccccc3)CCCC2)cc1 (centres undefined) | < 70
CC(=O)NCCc1nc2ccccc2n1Cc1ccc(C(C)C)cc1 | < 70
CCOc1cc(Br)c(C(C)NC(=O)c2cccc(OC)c2)cc1OCC (centres undefined) | < 70
O=C(c1[nH]nc2c1CCCC2)N1CCN(Cc2ccc3c(c2)OCO3)CC1 | < 70
O=C1O[C@@H](CO)CN1c1cc(F)c(C2=CCN(Cc3ccccc3)CC2)c(F)c1 | < 70
COc1ccc(NC2=NC(=O)/C(=C/c3cc(C)n(-c4cccc(Cl)c4Cl)c3C)S2)cc1 | < 70
CCOc1ccc2cc(-c3nn(C(C)(C)C)c(N)c3C(N)=O)cnc2c1 | < 70
COc1ccc2nc(C)cc(OCC(=O)Nc3ccccc3OC)c2c1 | < 70
O=C(CN1CCN(C(=O)/C=C/c2sc3ccccc3c2Cl)CC1)NC1CC1 | < 70
CNc1snc(C)c1C(=O)NC(C)c1ccc(C(C)C)cc1 (centres undefined) | < 70
Cc1cccc(Cn2ccc(NC(=O)c3ccc4c(c3)OCO4)n2)c1 | < 70
Cc1cc(NC(=O)c2ccc(-c3ccccc3)cc2)no1 | < 70

SMILES | growth inhibition at single dose [%]
CS(=O)(=O)N1CCCc2cc(-c3csc(Nc4ccccn4)n3)ccc21 | < 70
CO[C@@H](C(=O)N1Cc2[nH]nc(NC(=O)c3ccc(N4CCN(C)CC4)cc3)c2C1)c1ccccc1 | < 70
CC1=C(C#N)C(/C=N/N(C)c2ncc(C(F)(F)F)cc2Cl)CC(=O)N1 (centres undefined) | < 70
Cc1cccc(-c2nnc(Sc3nc(C)nc4sc5c(c34)CCCC5)n2CC(N)=O)c1 | < 70
CC(C(=O)N1CCCC1)N1CCN(S(=O)(=O)c2ccc(C(C)(C)C)cc2)CC1 (centres undefined) | < 70
CCC(C)c1ccc(S(=O)(=O)N(Cc2ccc(C(=O)NC3CC3)cc2)C2CC2)cc1 (centres undefined) | < 70
COc1cc2c3cc1Oc1c(OC)c(OC)cc4c1C(Cc1ccc(O)c(c1)Oc1ccc(cc1)CC3N(C)CC2)N(C)CC4 (centres undefined) | < 70
Fc1ccc2[nH]c3c(NCCCN4CCOCC4)ncnc3c2c1 | < 70
CC(C)(CN)c1nc(-c2ccc(Cl)c(O)c2)c(-c2ccnc(N)n2)[nH]1 | < 70
CCOc1ccccc1C(=O)Nc1cccc(-c2nc3ncccn3c2C)c1 | < 70
CSc1nc2ccc(NC(=O)c3cn4ccccc4n3)cc2s1 | < 70
CCOc1ccccc1NC(=O)CN1CCN(C(=O)c2ccco2)CC1 | < 70
Nc1ccc(-c2nc3cc(Cc4ccc5[nH]c(-c6ccc(N)cc6)nc5c4)ccc3[nH]2)cc1 | < 70
COC(=O)c1c(C)[nH]c(C2=NNC(=NC3CC3)SC2)c1C | < 70
Cc1cc(C(=O)Nc2nc3ccccc3s2)c(C)n1C(C)C | < 70
COc1ccc2nc(C)cc(Nc3ccc(Cl)cc3)c2c1 | < 70
CC1CC2=C(CC1CNCCCN(C)C)C(C)(C)CCC2 (centres undefined) | < 70
Cc1ccc(OCCNC(=O)c2[nH]c3c(c2C)C(=O)CCC3)c(C)c1 | < 70
CC1COC2(CCN(c3nc(=O)c4cc(C(F)(F)F)cc([N+](=O)[O-])c4s3)CC2)O1 (centres undefined) | < 70
Cc1cc(=O)n2nc(CSc3nc4ccc(Cl)cc4c(=O)n3CC(C)C)sc2n1 | < 70
Cc1cc(N2CCN(CCO)CC2)n2ncc(-c3ccc(F)cc3)c2n1 | < 70
